Measurements taken from ChEMBL document CHEMBL1201862, “PubChem BioAssay data set” (2004).
The source made the active and inactive calls.

Columns and labels:
[1] = target: 1-phosphatidylinositol 4,5-bisphosphate phosphodiesterase gamma-1 (Homo sapiens, UniProt P19174); test: Counterscreen for inhibitors of phospholipase C isozymes (PLC-B3): Fluorescence-based biochemical high throughput dose response assay to identify inhibitors of phospholipase C isozymes (PLC-gamma1).
[2] = target: 1-phosphatidylinositol 4,5-bisphosphate phosphodiesterase beta-3 (Homo sapiens, UniProt Q01970); test: Fluorescence-based biochemical high throughput dose response assay to identify inhibitors of phospholipase C isozymes (PLC-B3).
Sequence of 1-phosphatidylinositol 4,5-bisphosphate phosphodiesterase beta-3 (Q01970 whole entry): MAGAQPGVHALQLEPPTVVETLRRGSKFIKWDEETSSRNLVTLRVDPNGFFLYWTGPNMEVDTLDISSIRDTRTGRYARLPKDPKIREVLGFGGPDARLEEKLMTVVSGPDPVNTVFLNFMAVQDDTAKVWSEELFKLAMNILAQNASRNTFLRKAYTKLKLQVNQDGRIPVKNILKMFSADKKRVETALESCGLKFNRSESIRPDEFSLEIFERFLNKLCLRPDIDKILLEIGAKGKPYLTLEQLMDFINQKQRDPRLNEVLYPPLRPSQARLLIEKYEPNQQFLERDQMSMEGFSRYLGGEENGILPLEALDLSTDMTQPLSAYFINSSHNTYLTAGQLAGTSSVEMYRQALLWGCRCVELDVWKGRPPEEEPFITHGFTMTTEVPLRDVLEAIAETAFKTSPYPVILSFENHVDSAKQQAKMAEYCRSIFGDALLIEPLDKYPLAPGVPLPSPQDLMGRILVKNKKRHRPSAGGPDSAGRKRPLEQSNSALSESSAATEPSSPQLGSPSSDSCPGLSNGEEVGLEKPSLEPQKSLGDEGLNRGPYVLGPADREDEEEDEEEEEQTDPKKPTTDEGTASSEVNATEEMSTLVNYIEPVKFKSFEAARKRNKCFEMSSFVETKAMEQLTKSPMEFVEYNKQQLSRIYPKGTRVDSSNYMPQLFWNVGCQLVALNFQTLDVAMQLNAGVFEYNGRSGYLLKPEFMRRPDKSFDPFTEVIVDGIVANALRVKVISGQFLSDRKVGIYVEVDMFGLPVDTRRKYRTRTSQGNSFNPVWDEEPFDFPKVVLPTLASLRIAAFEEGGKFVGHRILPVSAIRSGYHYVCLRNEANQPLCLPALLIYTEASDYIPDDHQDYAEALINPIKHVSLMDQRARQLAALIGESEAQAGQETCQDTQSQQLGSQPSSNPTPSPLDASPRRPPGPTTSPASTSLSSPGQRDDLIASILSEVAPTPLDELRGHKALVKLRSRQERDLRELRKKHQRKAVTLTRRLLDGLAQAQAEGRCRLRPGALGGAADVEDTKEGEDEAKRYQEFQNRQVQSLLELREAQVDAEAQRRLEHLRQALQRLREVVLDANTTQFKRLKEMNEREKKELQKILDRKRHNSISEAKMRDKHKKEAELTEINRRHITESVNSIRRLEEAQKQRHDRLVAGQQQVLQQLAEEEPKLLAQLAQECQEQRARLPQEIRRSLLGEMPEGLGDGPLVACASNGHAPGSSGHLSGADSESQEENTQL

fMet-Leu-Phe receptor = fMet-Leu-Phe receptor (Homo sapiens, UniProt P21462); test: FPR ligands, dose response (AID 519); assay type: functional
Sequence of fMet-Leu-Phe receptor (P21462 whole entry): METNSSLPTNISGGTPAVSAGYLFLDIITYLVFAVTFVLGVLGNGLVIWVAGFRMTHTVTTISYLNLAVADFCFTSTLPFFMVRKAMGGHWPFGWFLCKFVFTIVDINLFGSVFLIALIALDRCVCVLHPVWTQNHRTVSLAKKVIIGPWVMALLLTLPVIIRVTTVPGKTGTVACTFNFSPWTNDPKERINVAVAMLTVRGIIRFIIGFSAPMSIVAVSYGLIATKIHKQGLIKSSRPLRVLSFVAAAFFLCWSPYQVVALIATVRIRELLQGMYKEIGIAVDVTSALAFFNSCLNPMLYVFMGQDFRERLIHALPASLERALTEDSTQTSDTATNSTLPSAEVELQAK

H9c2 = test: cells; assay type: functional, cell-based; settings: Rattus norvegicus, H9c2, Myocardium;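 also: confirmatory concentration-response retest of ultra-high-throughput screening hits for modulation of myocardial damage; cell death induced by hydrogen peroxide oxidative stress; compound pretreatment for 60 min then peroxide exposure for 2 h; potency is for protecting the cells against peroxide damage rather than for killing them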
[3] = target: Histone-lysine N-methyltransferase NSD2 (Homo sapiens, UniProt O96028); assay type: biochemical
Sequence of Histone-lysine N-methyltransferase NSD2 (O96028 whole entry): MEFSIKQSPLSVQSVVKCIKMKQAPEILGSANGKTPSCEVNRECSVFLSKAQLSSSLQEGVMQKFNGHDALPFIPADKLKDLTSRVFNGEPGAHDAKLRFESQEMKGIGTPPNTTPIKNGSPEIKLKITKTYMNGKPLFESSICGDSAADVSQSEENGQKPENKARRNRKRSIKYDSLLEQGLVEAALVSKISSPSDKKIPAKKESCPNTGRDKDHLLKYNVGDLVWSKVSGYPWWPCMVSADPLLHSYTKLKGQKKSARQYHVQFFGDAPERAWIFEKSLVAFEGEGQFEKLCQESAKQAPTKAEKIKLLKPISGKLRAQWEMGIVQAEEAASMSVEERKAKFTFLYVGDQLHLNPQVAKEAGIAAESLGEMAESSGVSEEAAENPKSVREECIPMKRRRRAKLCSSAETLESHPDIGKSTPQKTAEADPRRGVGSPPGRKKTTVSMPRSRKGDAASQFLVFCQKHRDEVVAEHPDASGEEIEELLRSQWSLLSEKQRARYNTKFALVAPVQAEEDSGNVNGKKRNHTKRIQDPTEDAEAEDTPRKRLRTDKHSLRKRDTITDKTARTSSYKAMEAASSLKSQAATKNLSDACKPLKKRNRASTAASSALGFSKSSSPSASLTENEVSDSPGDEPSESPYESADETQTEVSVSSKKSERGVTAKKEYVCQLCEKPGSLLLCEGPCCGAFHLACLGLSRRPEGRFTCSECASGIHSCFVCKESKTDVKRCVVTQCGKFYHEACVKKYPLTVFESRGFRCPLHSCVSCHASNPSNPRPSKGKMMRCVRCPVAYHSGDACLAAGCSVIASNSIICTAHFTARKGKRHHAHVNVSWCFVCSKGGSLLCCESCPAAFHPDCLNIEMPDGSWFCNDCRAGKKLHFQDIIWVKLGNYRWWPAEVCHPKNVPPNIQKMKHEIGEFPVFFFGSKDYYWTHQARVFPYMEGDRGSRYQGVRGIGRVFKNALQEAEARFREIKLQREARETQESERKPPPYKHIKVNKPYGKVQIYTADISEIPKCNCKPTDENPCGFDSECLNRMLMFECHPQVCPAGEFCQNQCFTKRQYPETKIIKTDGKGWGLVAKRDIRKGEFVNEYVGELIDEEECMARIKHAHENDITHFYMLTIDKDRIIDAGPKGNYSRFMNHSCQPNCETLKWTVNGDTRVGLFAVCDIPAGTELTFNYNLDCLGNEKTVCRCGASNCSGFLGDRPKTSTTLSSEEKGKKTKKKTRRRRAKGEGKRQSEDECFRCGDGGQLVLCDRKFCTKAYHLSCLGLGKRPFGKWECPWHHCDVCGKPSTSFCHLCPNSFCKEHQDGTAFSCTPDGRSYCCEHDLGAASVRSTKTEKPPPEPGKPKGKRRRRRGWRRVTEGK

[4] = target: T1, Heat shock factor protein 1 (Mus musculus, UniProt P38532); test: HSF1 potentiators in luciferase reporter cells, confirmation, cell-based, NIH3T3, luminescence, dose retest (AID 435004); assay type: functional;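 also: stress induced by proteasome inhibitor MG132 added 30 min after compound; luciferase reporter driven by HSF1 response element in NIH3T3 cells; actives raise luminescence as potentiators of the MG132 stress response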
T1 sequence (P38532 whole entry): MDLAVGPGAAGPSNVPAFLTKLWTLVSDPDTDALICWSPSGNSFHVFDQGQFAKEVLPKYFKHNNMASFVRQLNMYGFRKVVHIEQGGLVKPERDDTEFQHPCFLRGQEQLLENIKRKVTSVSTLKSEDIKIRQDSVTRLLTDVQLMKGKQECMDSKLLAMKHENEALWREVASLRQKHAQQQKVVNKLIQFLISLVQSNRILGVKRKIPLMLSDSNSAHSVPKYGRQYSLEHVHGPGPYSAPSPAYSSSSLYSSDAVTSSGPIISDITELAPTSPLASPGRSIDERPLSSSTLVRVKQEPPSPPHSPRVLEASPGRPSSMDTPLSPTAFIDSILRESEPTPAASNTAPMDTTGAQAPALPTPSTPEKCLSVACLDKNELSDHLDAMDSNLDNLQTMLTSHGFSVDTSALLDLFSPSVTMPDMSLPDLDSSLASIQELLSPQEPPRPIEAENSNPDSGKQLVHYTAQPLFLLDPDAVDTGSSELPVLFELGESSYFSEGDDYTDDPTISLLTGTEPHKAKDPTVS

cells [5] = assay type: functional, cell-based
[6] = target: T2, Trace amine-associated receptor 1 (Homo sapiens, UniProt Q96RJ0); test: Fluorescence-based cell-based high throughput dose response assay to identify agonists of the human trace amine associated receptor 1 (TAAR1).; assay type: functional
T2 sequence (Q96RJ0 whole entry): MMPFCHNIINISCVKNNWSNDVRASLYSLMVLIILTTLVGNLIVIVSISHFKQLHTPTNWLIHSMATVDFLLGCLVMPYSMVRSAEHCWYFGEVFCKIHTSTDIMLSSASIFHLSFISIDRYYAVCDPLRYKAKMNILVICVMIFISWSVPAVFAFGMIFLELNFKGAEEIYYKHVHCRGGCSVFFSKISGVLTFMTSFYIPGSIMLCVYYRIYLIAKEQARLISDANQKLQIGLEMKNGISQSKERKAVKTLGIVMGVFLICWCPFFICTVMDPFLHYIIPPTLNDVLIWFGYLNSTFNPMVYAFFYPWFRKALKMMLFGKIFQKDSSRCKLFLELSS

[7] = target: T2, Trace amine-associated receptor 1; test: Counterscreen for agonists of the human trace amine associated receptor 1 (hTAAR1): Fluorescence-based cell-based high throughput dose response assay to identify hTAAR1 agonist that also desensitize TAAR1 receptor response.; assay type: functional
cells [8] = assay type: functional, cell-based; remark: listed apart in the source
[9] = miR-122 activators in hepatoma reporter cells, dose response, cell-based, Huh7 psiCHECK-miR122, Renilla luciferase, cherry-picked (AID 651956); assay type: functional;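 also: huh7 hepatoma cells stably carrying a psiCHECK-2 miR-122 sensor plasmid; renilla luciferase signal reporting endogenous miR-122 activity after 48 h compound exposure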
[10] = HEK293T cytotoxicity, dose response, cytotoxicity control for miR-122 modulator project, cell-based, activator set, cherry-pick (AID 720690); assay type: functional;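 also: HEK293T human cells scored for general mammalian cytotoxicity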
Paired box protein Pax-8 = Paired box protein Pax-8 (Homo sapiens, UniProt Q06710); test: inhibitors of PAX8-driven TPO luciferase reporter, dose response, RMG-I cells, cherry-pick (AID 687027); assay type: functional, cell-based;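 also: luciferase reporter driven by Pax8 target thyroperoxidase promoter measured by SteadyGlo luminescence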
Sequence of Paired box protein Pax-8 (Q06710 whole entry): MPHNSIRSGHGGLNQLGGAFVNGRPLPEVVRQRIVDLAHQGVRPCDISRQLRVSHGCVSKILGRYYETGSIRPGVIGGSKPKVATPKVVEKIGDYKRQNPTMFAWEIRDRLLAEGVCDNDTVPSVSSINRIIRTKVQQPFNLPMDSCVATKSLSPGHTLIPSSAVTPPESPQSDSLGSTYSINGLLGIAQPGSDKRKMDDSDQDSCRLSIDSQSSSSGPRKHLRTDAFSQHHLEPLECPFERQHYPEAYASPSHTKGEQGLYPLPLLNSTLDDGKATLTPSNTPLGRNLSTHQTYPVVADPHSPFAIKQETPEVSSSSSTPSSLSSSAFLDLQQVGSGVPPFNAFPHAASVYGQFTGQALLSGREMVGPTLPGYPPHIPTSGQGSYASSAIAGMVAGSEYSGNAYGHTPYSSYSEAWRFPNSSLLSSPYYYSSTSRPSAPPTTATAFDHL

[11] = NIH:OVCAR-3 ovarian cancer cell cytotoxicity, dose response, PAX8 inhibitor project, plate reader, dry powder samples (AID 743044); assay type: functional, cell-based
[12] = IGROV1 ovarian cancer cell cytotoxicity, dose response, PAX8 inhibitor project, plate reader, dry powder samples (AID 743043); assay type: functional, cell-based; settings: IGROV-1
[13] = non-specific cell cytotoxicity, dose response, cytotoxicity control for PAX8 inhibitor project, plate reader, dry powder samples (AID 743021); assay type: functional, cell-based
[14] = cytotoxicity in OVCAR8 ovarian cancer cells, dose response, PAX8 project, cell-based, plate reader, dry powder samples (AID 743197); assay type: functional; settings: OVCAR-8
[15] = HepG2 cell cytotoxicity, dose response, cytotoxicity control, cherry-picks, set 5 (AID 1053118); assay type: functional, cell-based
[16] = HEK293 cell cytotoxicity, dose response, cytotoxicity control, cherry-picks, set 5 (AID 1053117); assay type: functional, cell-based
[17] = A549 cell cytotoxicity, dose response, cytotoxicity control, cherry-picks, 26 µM top dose (AID 1053119); assay type: functional, cell-based
[18] = P. falciparum Dd2 growth inhibitors, dose response, SYBR Green, cherry-picked samples (AID 1159567); assay type: functional, cell-based
[19] = HepG2 cell cytotoxicity, dose response, cytotoxicity control, cherry-picked samples (AID 1159577); assay type: functional, cell-based
[20] = target: Potassium channel subfamily K member 9 (Homo sapiens, UniProt Q9NPC2); test: TASK3 (KCNK9) channel inhibitors, thallium flux, SAR follow-up, selectivity assay for TASK1 inhibitor project, cell-based, FluxOR thallium flux, concentration-response (AID 652211); assay type: functional;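 also: potency is for inhibitors of the channel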
Sequence of Potassium channel subfamily K member 9 (Q9NPC2 whole entry): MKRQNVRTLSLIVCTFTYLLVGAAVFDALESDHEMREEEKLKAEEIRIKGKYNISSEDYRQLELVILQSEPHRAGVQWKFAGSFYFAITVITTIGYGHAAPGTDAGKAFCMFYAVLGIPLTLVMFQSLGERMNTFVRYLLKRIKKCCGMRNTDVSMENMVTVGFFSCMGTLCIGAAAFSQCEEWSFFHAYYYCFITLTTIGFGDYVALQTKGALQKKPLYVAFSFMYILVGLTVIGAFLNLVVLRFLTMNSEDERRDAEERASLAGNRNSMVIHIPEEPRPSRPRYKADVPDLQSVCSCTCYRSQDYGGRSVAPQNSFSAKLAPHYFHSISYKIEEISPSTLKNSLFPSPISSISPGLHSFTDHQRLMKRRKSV

[21] = inhibitors of fibronectin matrix deposition, dose response, AH1F cells, Alexa488-FN fluorescence, cherry-picks (AID 1035475); assay type: functional, cell-based
[22] = target: T1, Heat shock factor protein 1; test: inhibition of MG132-induced HSE-luciferase signal, confirmation, cell-based, NIH3T3, luminescence, dose retest (AID 2382); assay type: functional;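 also: NIH3T3 fibroblasts with HSF1-driven luciferase reporter stressed by proteasome inhibitor MG132; luminescence from HSF1-driven luciferase expression after 8 hours of MG132 stress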
[23] = target: T3, Replicative DNA helicase DnaB (Mycobacterium tuberculosis, UniProt P9WMR3); test: DnaB intein splicing inhibitors, dose response, biochemical, cell-free fluorescence (AID 449749); assay type: functional
T3 sequence (P9WMR3 whole entry): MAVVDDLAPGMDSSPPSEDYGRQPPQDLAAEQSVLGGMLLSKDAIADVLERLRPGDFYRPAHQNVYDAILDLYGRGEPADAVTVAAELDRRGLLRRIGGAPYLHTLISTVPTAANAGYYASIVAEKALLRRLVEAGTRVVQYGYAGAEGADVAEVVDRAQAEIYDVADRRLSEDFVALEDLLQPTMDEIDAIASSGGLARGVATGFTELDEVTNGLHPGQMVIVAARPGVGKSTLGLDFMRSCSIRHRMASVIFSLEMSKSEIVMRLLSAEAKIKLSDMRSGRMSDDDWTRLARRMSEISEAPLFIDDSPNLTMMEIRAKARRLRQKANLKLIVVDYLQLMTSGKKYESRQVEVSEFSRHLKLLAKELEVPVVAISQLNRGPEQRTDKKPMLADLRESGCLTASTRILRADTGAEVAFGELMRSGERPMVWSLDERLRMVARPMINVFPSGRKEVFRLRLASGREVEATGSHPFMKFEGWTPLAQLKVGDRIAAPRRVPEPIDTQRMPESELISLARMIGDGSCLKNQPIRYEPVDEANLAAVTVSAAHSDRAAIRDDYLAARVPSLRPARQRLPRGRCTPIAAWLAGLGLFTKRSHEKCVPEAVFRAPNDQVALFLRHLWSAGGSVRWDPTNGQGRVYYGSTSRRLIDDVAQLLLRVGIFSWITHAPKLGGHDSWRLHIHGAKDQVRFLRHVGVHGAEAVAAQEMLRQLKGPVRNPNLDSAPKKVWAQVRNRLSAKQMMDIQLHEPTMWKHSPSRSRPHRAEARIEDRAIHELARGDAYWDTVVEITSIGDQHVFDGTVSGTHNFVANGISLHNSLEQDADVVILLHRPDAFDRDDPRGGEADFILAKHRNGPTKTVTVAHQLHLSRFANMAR

Protein RecA = target: T4, Protein RecA (Mycobacterium tuberculosis, UniProt P9WHJ3); test: Fluorescence Cell-Free Homogeneous Dose Retest to Identify Inhibitors of RecA-Intein Splicing Activity. [Related pubchem assays (depositor defined):AID2097, AID2223, AID489010, AID492950]; assay type: functional
T4 sequence (P9WHJ3 whole entry): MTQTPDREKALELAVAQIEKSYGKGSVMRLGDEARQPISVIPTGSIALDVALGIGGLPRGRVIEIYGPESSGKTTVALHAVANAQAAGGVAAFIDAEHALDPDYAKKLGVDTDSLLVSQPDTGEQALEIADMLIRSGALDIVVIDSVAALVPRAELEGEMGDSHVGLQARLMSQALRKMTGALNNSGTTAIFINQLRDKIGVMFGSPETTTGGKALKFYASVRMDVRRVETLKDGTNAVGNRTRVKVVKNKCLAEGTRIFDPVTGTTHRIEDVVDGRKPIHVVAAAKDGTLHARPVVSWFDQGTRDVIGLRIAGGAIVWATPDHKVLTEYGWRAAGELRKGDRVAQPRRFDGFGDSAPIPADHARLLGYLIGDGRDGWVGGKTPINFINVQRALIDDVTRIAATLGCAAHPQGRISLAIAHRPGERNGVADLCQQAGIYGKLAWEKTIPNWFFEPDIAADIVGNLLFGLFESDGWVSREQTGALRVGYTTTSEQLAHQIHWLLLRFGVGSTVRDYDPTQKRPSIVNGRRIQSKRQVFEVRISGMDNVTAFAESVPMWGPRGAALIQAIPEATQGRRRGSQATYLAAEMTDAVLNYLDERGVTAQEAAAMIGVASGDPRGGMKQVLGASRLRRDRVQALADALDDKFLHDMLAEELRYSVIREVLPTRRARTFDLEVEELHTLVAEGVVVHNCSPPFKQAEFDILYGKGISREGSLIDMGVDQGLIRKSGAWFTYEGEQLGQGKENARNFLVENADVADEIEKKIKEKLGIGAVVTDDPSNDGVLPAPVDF

[24] = target: T5, Sentrin-specific protease 8 (Homo sapiens, UniProt Q96LD8); assay type: functional
T5 sequence (Q96LD8 whole entry): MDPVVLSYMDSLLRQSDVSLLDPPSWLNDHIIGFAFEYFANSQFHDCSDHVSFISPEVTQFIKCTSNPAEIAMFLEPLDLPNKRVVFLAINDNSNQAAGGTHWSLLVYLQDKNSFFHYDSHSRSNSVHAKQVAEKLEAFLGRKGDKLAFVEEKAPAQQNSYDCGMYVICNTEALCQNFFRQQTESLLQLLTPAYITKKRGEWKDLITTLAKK

[25] = target: T5, Sentrin-specific protease 8; assay type: functional; remark: listed apart in the source
[26] = target: Tyrosyl-DNA phosphodiesterase 2 (Homo sapiens, UniProt O95551); test: human TDP2 enzyme inhibitors, dose response, biochemical, epi absorbance, IC50 (AID 743297)

Sequence of 1-phosphatidylinositol 4,5-bisphosphate phosphodiesterase gamma-1 (P19174 whole entry): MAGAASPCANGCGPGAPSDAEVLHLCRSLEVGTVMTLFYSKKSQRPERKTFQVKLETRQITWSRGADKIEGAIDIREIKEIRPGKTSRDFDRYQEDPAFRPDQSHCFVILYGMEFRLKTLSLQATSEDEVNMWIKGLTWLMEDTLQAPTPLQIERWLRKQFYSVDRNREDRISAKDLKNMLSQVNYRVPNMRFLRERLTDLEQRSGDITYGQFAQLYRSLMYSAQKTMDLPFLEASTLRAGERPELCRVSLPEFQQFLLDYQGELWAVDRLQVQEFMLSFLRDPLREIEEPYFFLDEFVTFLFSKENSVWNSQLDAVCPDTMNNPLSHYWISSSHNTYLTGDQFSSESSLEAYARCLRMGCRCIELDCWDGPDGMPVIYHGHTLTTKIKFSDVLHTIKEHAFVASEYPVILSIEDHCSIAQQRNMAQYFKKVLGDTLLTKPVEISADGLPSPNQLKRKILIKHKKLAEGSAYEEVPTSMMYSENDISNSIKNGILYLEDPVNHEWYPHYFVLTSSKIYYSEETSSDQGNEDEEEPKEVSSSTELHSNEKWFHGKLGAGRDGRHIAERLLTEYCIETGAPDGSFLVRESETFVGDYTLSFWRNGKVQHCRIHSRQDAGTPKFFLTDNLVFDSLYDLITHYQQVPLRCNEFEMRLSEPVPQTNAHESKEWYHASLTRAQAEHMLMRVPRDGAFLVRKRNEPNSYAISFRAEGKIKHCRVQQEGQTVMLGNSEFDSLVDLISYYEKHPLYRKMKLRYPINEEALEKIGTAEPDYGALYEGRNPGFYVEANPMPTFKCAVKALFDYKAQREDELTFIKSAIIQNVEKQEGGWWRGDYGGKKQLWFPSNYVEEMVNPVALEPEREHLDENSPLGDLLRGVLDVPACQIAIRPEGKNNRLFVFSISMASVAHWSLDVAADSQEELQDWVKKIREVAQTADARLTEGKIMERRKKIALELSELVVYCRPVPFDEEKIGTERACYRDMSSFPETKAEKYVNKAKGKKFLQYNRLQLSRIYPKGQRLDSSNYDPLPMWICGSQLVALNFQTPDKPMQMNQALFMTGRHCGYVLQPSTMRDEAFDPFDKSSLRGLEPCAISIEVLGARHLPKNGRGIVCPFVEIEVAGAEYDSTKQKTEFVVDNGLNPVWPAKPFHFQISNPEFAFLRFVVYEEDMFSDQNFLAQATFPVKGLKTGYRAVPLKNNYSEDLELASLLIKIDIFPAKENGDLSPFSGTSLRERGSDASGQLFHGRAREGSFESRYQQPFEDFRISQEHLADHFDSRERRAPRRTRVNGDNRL

With `O=S(=O)(c1ccc(Cl)cc1)c1cnc2ccccc2n1` the IC50 [1] was > 123 µM (inactive) and the IC50 [2] was > 123 µM (inactive).

In the case of `C/C(=C1/SC(N2CCCC2)=NC1=O)c1ccc(Br)cc1`, the Ki (fMet-Leu-Phe receptor) is reported as > 66.7 µM (inactive).

With `O=C(CN1CCN(S(=O)(=O)c2ccc(Br)cc2)CC1)c1ccc(O)c(O)c1` the IC50 (H9c2) was > 79 µM (inactive) and the AC50 [3] was 8.3 µM (active).

For `CCOC(=O)CSc1nnc(Cn2c(=O)sc3ccccc32)n1-c1ccccc1C`, the IC50 [1] was > 122 µM (inactive) and the IC50 [2] was > 122 µM (inactive).

For `c1ccc2c3c([nH]c2c1)CCNC3`, the EC50 [4] was > 260 µM (inactive), the IC50 (cells [5]) was > 29.9 µM (inactive) and the EC50 [6] was 0.412 µM (active). The IC50 [7] was 1.77 µM (active) and the EC50 (cells [8]) was > 29.9 µM (inactive).

For `CCOc1ccc(C2C(C(=O)c3ccco3)=C(O)C(=O)N2Cc2cccnc2)cc1` (stereo not given), the Ki (fMet-Leu-Phe receptor) was 15.3 µM (inactive).

For `COc1ccc(NC(=O)N2CCCCN3[C@H](CO)[C@H](c4ccc(C#CCC(C)C)cc4)[C@H]3C2)cc1`, the AC50 [9] was 7.68 µM (active) and the AC50 [10] was 16 µM (active).

With `CN1C(=O)c2cc(NC(=O)c3ccc(C(F)(F)F)cc3)ccc2OC[C@@H]2O[C@H](CC(=O)NCc3ccc4c(c3)OCO4)CC[C@H]21` the AC50 [9] was 53.6 µM (active) and the AC50 [10] was 34.9 µM (active).

For `COc1ccc(-c2ccc3c(c2)[C@H]2[C@H](CCN2S(=O)(=O)c2ccc(F)cc2)[C@H](CO)N3C)cc1`, the AC50 (Paired box protein Pax-8) was 8.98 µM (active), the AC50 [11] was 19.3 µM (active) and the AC50 [12] was 34.4 µM (active). For the same compound, the AC50 [13] was 63.7 µM (active) and the AC50 [14] was 31.8 µM (active).

In the case of `CO[C@@H]1CN(C)C(=O)c2cc(NC(=O)Nc3ccc(Cl)c(Cl)c3)ccc2OC[C@@H](C)NC[C@@H]1C`, the AC50 [15] is reported as > 52 µM (inactive), the AC50 [16] is reported as 45.9 µM (active) and the AC50 [17] is reported as > 52 µM (inactive). For the same compound, the AC50 [18] was 5.7 µM (active) and the AC50 [19] was 18.2 µM (active).

With `Cc1cccc(C(=O)Nc2cccc(NC(=O)c3cccc(C)c3)c2)c1` the IC50 [20] was 0.99 µM (active).

With `O=S(=O)(c1cccc(F)c1)N1CC[C@@H]2[C@H](CO)Nc3ccc(-c4cccc(F)c4)cc3[C@@H]21` the AC50 [15] was 42 µM (active), the AC50 [16] was 27.2 µM (active) and the AC50 [17] was 33.4 µM (active). The AC50 [21] was > 70 µM (inactive).

For `C[C@@H]1CN([C@@H](C)CO)C(=O)c2cc(NC(=O)C3CCCCC3)ccc2O[C@H]1CN(C)Cc1ccc(-c2ccccc2)cc1`, the AC50 [16] was > 52 µM (inactive) and the AC50 [21] was 30.9 µM (active).

With `Nn1cnnc1N/N=C/c1ccc(Cl)c([N+](=O)[O-])c1` the EC50 [22] was 10.2 µM (active), the AC50 [23] was 18.1 µM (active) and the EC50 (Protein RecA) was 10.3 µM (active). For the same compound, the IC50 [24] was 21.7 µM (active), the IC50 [25] was 23.2 µM (active) and the IC50 [26] was 81.2 µM (inactive).
